Experimental data from publication PMC6522912, “Evaluation of the published kinase inhibitor set to identify multiple inhibitors of bacterial ATP-dependent mur ligases” (Journal of Enzyme Inhibition and Medicinal Chemistry, 2019).

Tests used:
E. coli MurD = E. coli MurD (Escherichia coli, UniProt P14900); assay: biochemical; details: for remaining activity at 100 µM: 0.25 h, Table S1, PKIS screening, read-out: RA [%] at 100 µM MurD
Description: (§1) Inhibition of the Mur ligases was determined using the malachite green assay, with slight modifications.
(§2) In all cases, the final concentration of DMSO was 5% (v/v). After incubation for 15 min at 37 °C, the enzyme reaction was terminated by addition of 100 µM Biomol green reagent, and the absorbance was measured at 650 nm after 5 min. All of the experiments were run in duplicate. Residual activities were calculated with respect to control assays without the tested compounds, but with the 5% DMSO carrier.
(§3) The published kinase inhibitor set compounds were evaluated for inhibition of MurC, D and F ligases from E. coli using the Malachite green assay, which detects orthophosphate generated during enzymatic reactions. To avoid non-specific inhibition due to aggregate formation, all of the compounds were tested in the presence of detergent (0.005% Triton-X114). The data are presented as the residual activities of these Mur ligases in the presence of 100 µM of each test compound (Supporting Information Table S1).

E. coli MurF = E. coli MurF (Escherichia coli, UniProt P11880); assay: biochemical; details: for RA (%) MurF: Table S3, aza stilbene compounds; for remaining activity at 100 µM: 0.25 h, read-out: RA [%] at 100 µM MurF
Chain of E. coli MurF (P11880 whole entry): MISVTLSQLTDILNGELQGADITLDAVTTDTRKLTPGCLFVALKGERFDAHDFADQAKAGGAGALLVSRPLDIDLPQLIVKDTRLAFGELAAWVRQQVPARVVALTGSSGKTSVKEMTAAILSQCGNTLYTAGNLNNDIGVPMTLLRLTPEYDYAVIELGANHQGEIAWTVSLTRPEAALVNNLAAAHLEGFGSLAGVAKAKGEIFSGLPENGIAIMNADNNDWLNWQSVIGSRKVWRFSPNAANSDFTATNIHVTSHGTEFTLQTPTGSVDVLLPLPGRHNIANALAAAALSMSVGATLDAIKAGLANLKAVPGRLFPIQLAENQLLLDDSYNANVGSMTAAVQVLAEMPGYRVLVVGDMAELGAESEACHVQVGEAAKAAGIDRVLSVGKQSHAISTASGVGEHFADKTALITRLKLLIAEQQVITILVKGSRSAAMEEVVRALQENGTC
Description: as §1, §2
as §3, with “S1). […] Additionally, regarding the data of profiled compounds in large panels of human kinase assays[41]” for “S1).”

E. coli MurC = E. coli MurC (Escherichia coli, UniProt P17952); assay: Malachite green inhibition assay, MurC; type: biochemical; details: for RA (%) MurC: Table S3, aza stilbene compounds; for remaining activity at 100 µM: 0.25 h, read-out: RA [%] at 100 µM MurC
Chain of E. coli MurC (P17952 whole entry): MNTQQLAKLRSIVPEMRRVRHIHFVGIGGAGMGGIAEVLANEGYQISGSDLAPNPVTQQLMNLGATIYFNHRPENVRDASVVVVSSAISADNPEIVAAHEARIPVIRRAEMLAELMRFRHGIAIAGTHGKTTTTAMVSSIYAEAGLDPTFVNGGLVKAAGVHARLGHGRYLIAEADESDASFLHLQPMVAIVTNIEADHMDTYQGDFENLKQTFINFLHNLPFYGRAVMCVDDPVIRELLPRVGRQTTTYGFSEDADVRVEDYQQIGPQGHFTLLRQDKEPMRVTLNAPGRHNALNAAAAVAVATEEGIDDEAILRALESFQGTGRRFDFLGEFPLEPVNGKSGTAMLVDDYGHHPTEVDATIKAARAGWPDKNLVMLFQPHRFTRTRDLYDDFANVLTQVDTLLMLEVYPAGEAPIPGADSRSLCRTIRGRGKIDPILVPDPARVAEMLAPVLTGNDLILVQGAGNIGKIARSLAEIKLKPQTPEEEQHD
Description: as §1, §2
as §3, with “S1). […] Additionally, regarding the data of profiled compounds in large panels of human kinase assays[41]” for “S1).”

Chain of E. coli MurD (P14900 whole entry): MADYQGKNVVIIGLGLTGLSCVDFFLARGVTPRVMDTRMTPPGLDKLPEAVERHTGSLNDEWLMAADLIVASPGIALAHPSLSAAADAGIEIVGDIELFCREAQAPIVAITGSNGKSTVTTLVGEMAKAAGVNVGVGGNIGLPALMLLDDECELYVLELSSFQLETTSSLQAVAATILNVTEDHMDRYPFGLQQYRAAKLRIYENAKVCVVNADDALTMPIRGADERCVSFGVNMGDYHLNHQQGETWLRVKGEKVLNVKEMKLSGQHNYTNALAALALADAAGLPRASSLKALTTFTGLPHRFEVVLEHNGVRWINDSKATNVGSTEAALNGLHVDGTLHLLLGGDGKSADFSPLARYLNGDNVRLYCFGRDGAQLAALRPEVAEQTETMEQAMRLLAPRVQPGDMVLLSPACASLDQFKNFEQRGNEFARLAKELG

| SMILES | remaining activity at 100 µM (E. coli MurD) | remaining activity at 100 µM (E. coli MurF; Table S1, PKIS screening) | remaining activity at 100 µM (E. coli MurC; Table S1, PKIS screening) | other results |
| --- | --- | --- | --- | --- |
| Cc1cc(-c2ccccn2)cc(C)c1C=Cc1cncc(-c2nn[nH]n2)c1 [Compound 6] | – | – | – | RA (%) MurD (E. coli MurD): 83%; RA (%) MurF (E. coli MurF): 76%; RA (%) MurC (E. coli MurC): 59% |
| Cc1cc(O)cc(C)c1C=Cc1cncc(-c2nn[nH]n2)c1 [Compound 7] | – | – | – | RA (%) MurD (E. coli MurD): 91%; RA (%) MurF (E. coli MurF): 90%; RA (%) MurC (E. coli MurC): 70% |
| CNC(=O)c1cncc(C=Cc2ccccc2C)c1 [Compound 8] | – | – | – | RA (%) MurD (E. coli MurD): 91%; RA (%) MurF (E. coli MurF): 85%; RA (%) MurC (E. coli MurC): 100% |
| CNC(=O)c1cncc(C=Cc2c(C)cccc2C)c1 [Compound 9] | – | – | – | RA (%) MurD (E. coli MurD): 83%; RA (%) MurF (E. coli MurF): 54%; RA (%) MurC (E. coli MurC): 85% |
| CNC(=O)c1cncc(C=Cc2c(Cl)cccc2Cl)c1 [Compound 10] | – | – | – | RA (%) MurD (E. coli MurD): 80%; RA (%) MurF (E. coli MurF): 77%; RA (%) MurC (E. coli MurC): 81% |
| CNC(=O)c1cncc(C=Cc2ccccc2Cl)c1 [Compound 11] | – | – | – | RA (%) MurD (E. coli MurD): 87%; RA (%) MurF (E. coli MurF): 90%; RA (%) MurC (E. coli MurC): 68% |
| CCc1cccc(CC)c1C=Cc1cncc(C(=O)NC)c1 [Compound 12] | – | – | – | RA (%) MurD (E. coli MurD): 74%; RA (%) MurF (E. coli MurF): 76%; RA (%) MurC (E. coli MurC): 67% |
| CNC(=O)Oc1cc(C)c(C=Cc2cncc(C(=O)NC)c2)c(C)c1 [Compound 13] | – | – | – | RA (%) MurD (E. coli MurD): 69%; RA (%) MurF (E. coli MurF): 87%; RA (%) MurC (E. coli MurC): 68% |
| Cc1cc(O)cc(C)c1C=Cc1cncc(C(N)=O)c1 [Compound 14] | – | – | – | RA (%) MurD (E. coli MurD): 89%; RA (%) MurF (E. coli MurF): 75%; RA (%) MurC (E. coli MurC): 89% |
| COC(=O)c1cncc(C=Cc2c(C)cc(O)cc2C)c1 [Compound 15] | – | – | – | RA (%) MurD (E. coli MurD): 69%; RA (%) MurF (E. coli MurF): 81%; RA (%) MurC (E. coli MurC): 98% |
| Cc1cc(O)cc(C)c1C=Cc1cncc(C(=O)OC(C)(C)C)c1 [Compound 16] | – | – | – | RA (%) MurD (E. coli MurD): 96%; RA (%) MurF (E. coli MurF): 69%; RA (%) MurC (E. coli MurC): 75% |
| COc1ccc2ncnc(Nc3ccc(OCc4ccccc4)cc3)c2c1 [GI261520A] | 31% | 81% | 58% | – |
| O=C1Nc2ccccc2/C1=C1\CCc2cc(O)ccc21 [GR105659X] | 100% | 100% | 85% | – |
| c1ccc(Cc2nc3ccc(Nc4ncnc5ccccc45)cc3[nH]2)cc1 [GR269666A] | 83% | 96% | 77% | – |
| CC1=C(C(=O)Nc2ccc3[nH]ncc3c2)C(c2ccc(F)cc2)NC(=O)N1 (stereo not shown) [GSK180736A] | 79% | 85% | 80% | – |
| CN(C)C(=O)O[C@H]1CN[C@H](C#Cc2cc3ncnc(Nc4ccc(OCc5cccc(F)c5)c(Cl)c4)c3s2)C1 [GSK182497A] | 65% | 76% | 43% | – |
| CCNC(=O)O[C@H]1CN[C@H](C#Cc2cc3ncnc(Nc4ccc(OCc5cccc(F)c5)c(Cl)c4)c3s2)C1 [GSK192082A] | 70% | 50% | 39% | – |
| O=C(O[C@H]1CN[C@H](C#Cc2cc3ncnc(Nc4ccc5c(cnn5Cc5ccccc5)c4)c3s2)C1)N1CCOCC1 [GSK200398A] | 61% | 60% | 52% | – |
| COc1cc2ncn(-c3cc(OCCc4ccccc4)c(C(N)=O)s3)c2cc1OC [GSK204925A] | 68% | 63% | 56% | – |
| COc1cc2ncn(-c3cc(O[C@@H](C)c4ccccc4Cl)c(C(N)=O)s3)c2cc1OC [GSK237700A] | – | 75% | – | – |
| CCn1c(-c2nonc2N)nc2cnc(Oc3cccc(NC(=O)c4ccc(OCCN5CCOCC5)cc4)c3)cc21 [GSK269962B] | 58% | 66% | 57% | – |
| CC1=C(C(=O)Nc2ccc3[nH]ncc3c2)C(c2ccc3ccccc3c2)CC(=O)N1 (stereo not shown) [GSK270822A] | 81% | 68% | 66% | – |
| CC1=C(C(=O)Nc2ccc3[nH]ncc3c2)C(c2ccc(Cl)c(Cl)c2)CC(=O)N1 (stereo not shown) [GSK299115A] | 96% | 68% | 78% | – |
| CS(=O)(=O)CCNCc1cc(-c2cc3c(Nc4ccc(OCc5cccc(F)c5)c(Cl)c4)ncnc3s2)cs1 [GSK300014A] | 91% | 95% | 88% | – |
| COc1cc2ncn(-c3cc(OCc4cccs4)c(C(N)=O)s3)c2cc1OC [GSK312948A] | 72% | 79% | 98% | – |

| SMILES | remaining activity at 100 µM (E. coli MurD) | remaining activity at 100 µM (E. coli MurF; Table S1, PKIS screening) | remaining activity at 100 µM (E. coli MurC; Table S1, PKIS screening) | other results |
| --- | --- | --- | --- | --- |
| COc1ccc2ncn(-c3cc(O[C@H](C)c4ccccc4C(F)(F)F)c(C(N)=O)s3)c2c1 [GSK317315A] | 47% | 51% | 53% | – |
| CC1=C(C(=O)Nc2ccc3[nH]ncc3c2)C(c2ccc(F)cc2)NC(c2ccc(C(F)(F)F)nc2)=N1 (stereo not shown) [GSK317354A] | 96% | 96% | 68% | – |
| COc1cc2ncn(-c3cc(OCc4ccccc4S(C)(=O)=O)c(C#N)s3)c2cc1OC [GSK319347A] | 100% | 75% | 59% | – |
| CC1=C(C(=O)Nc2ccc3[nH]nc(C)c3c2)C(c2ccc(C(F)(F)F)cc2)CC(=O)N1 (stereo not shown) [GSK466314A] | 100% | 79% | 79% | – |
| CC1=C(C(=O)Nc2cc(Cl)c3[nH]ncc3c2)C(c2ccc(C(F)(F)F)cc2)CC(=O)N1 (stereo not shown) [GSK466317A] | 99% | 71% | 80% | – |
| CCn1c(-c2nonc2N)nc2c(C#CC(C)(C)O)ncc(OCC3CCNCC3)c21 [GSK554170A] | 89% | 96% | 85% | – |
| CCn1c(-c2nonc2N)nc2c(C#CCN)ncc(OCCCN)c21 [GSK561866B] | 82% | 66% | 52% | – |
| C[C@@H](Oc1cc(-n2cnc3ccc(OCC4CCN(C)CC4)cc32)sc1C(N)=O)c1ccccc1Cl [GSK571989A] | 53% | 53% | 51% | – |
| C[C@@H](Oc1cc(-n2cnc3ccc(OC4CCN(C)CC4)cc32)sc1C(N)=O)c1ccccc1Cl [GSK579289A] | 70% | 66% | 67% | – |
| COc1ccc(-c2ccncc2)cc1C(N)=O [GSK605714A] | 91% | 90% | 86% | – |
| CCn1c(-c2nonc2N)nc2c(C#CC(C)(C)O)ncc(OC[C@@H]3CCCN3)c21 [GSK614526A] | 89% | 100% | 65% | – |
| CCn1c(-c2nonc2N)nc2c(C#CC(C)(C)O)ncc(OC3CCNCC3)c21 [GSK619487A] | 86% | 100% | 77% | – |
| Cc1cc(O)cc(Nc2ccnc3cc(-c4ccccn4)ccc23)c1 [GSK3206866A] | – | – | – | RA [%] at 100 µM MurF (E. coli MurF; Table S1, PKIS screening): 29%; RA [%] at 100 µM MurC (E. coli MurC; Table S1, PKIS screening): 76% |
| Cc1cccc2c1NC(=O)C2=NNc1ccc(S(N)(=O)=O)cc1 [GW282536X] | – | 27% | 93% | – |
| c1ccc(Oc2ccc(Nc3ncc(-c4ccccc4)o3)cc2)cc1 [GW641155A] | – | 86% | 66% | – |
| NC(=O)c1cccc(Nc2nccc(Nc3cccc(F)c3)n2)c1 [GW759710A] | – | 100% | 100% | – |
| Clc1ccc(CNc2nccc(-c3cnn4ncccc34)n2)cc1 [GW781673X] | – | 63% | 79% | – |
| COc1cccc(-n2ncc3c(N/N=C/c4ccncc4)ncnc32)c1 [GW784752X] | – | 93% | 76% | – |
| CC(=O)NCc1cccc(C#Cc2cncnc2Nc2ccc(OCc3cccc(F)c3)c(Cl)c2)c1 [GW807930X] | – | 69% | 66% | – |
| COc1cccc(-c2c[nH]c3c(N/N=C/c4ccncc4)ncnc23)c1 [GW814408X] | – | 87% | 98% | – |
| COc1cc(Nc2ncc3c(C)nc(-c4cccc(C(F)(F)F)c4)n3n2)cc(OC)c1OC [GW837331X] | – | 89% | 65% | – |
| OCc1ccc(-c2nc(-c3ccccn3)c(-c3ccc4c(c3)OCO4)[nH]2)cc1 [SB-431533] | – | 75% | 95% | – |
| CCn1c(-c2nonc2N)nc2ccccc21 [SB-693162] | – | 100% | 78% | – |
| Cn1c(-c2nonc2N)nc2cnccc21 [SB-736290] | – | 90% | 71% | – |
